Read-outs that look alike come from different tables or passages of the source. Peptide text beside a SMILES is read from it. * marks the point of attachment. Cbz = O=C(OCc1ccccc1)*; CH2F = FC*
Legend:
Format in all cases: cell-based
HT-29 cells = assay: Cell viability assay with ferroptosis/apoptosis inhibitor rescue, HT-29 cells (FIGS. 4-6); conditions: GPX4 inhibitor 100 nM + sorafenib C1 3 μM
Experimental: (§1) The activity of a combination of a GPX4 inhibitor (e.g., compound A1, A2, or A3) and a tyrosine kinase inhibitor (e.g., neratinib, regorafenib, or sorafenib) was determined in a cell proliferation assay using cancerous cell lines (e.g., HT-29 (colorectal adenocarcinoma), Hub-7 (hepatocellular carcinoma), or OVCAR-8 (ovarian adenocarcinoma)). Cells of each cell line were seeded in a 96-well tissue culture plate. After incubated overnight, a compound or a combination was added at predetermined concentration(s). After the cells were incubated for 24 h, cell viability was determined using a CELL-TITER GLO® assay. The CELL-TITER GLO® reagent (50 μL) was added to each well and the luminescence was measured by a multimode microplate reader after a brief period of shaking. EC50 values were determined from dose response curves.

Huh-7 cells = assay: Cell viability assay with ferroptosis/apoptosis inhibitor rescue, Huh-7 cells (FIGS. 1-3); conditions: GPX4 inhibitor 100 nM + sorafenib C1 3 μM
Experimental: as §1

[1] = tested on: cancerous cell lines (e.g., HT-29, Hub-7, or OVCAR-8); assay: Cell proliferation assay (CELL-TITER GLO cell viability), Table 1; conditions: 24 h incubation, cell line not stated
Experimental: as §1

[2] = GPX4 inhibitor alone, read-out: Inhibition of Cell Proliferation, Monotherapy (EC50)
[3] = GPX4 inhibitor in combination with C2 (10 μM), read-out: Inhibition of Cell Proliferation, Combination +C2 (10 μM) (EC50)
[4] = GPX4 inhibitor in combination with C3 (3 μM), read-out: Inhibition of Cell Proliferation, Combination +C3 (3 μM) (EC50)

SMILES | Rescue from cell death induced by GPX4 inhibitor A1, A2, or A3 in combination with sorafenib C1 (HT-29 cells) | Rescue from cell death induced by GPX4 inhibitor A1, A2, or A3 in combination with sorafenib C1 (Huh-7 cells) | EC50 [1, 2] [nM] | EC50 [1, 3] [nM] | EC50 [1, 4] [nM]
CCOC(=O)c1ccc(NC2CCCCC2)c(N)c1 [Fer-1, ferrostatin-1] | able to rescue | able to rescue | – | – | –
C#CC(=O)N(c1ccc(OC)c(Cl)c1)C(C(=O)NC(C)(C)C)c1ccc(N)cc1 (stereo not shown) [A3, N-(1-(4-aminophenyl)-2-(tert-butylamino)-2-oxoethyl)-N-(3-chloro-4-methoxyphenyl)propiolamide] | – | – | 5700 | 207 | 1800
COC(=O)C[C@H](NC(=O)[C@H](C)NC(=O)[C@@H](NC(=O)OCc1ccccc1)C(C)C)C(=O)CF [ZVAD, Z-VAD-FMK] (Cbz-Val-Ala-Asp(OMe)-CH2F) | could not | could not | – | – | –
C#CC(=O)N1C(c2ccc(C(=O)OC)cc2)c2[nH]c3ccccc3c2C[C@@H]1CO (stereo partly drawn) [A2, methyl 4-((3R)-3-(hydroxymethyl)-2-propioloyl-2,3,4,9-tetrahydro-1H-pyrido[3,4-b]indol-1-yl)benzoate] | – | – | 22500 | 97 | 1300
COC(=O)c1ccc(C2c3[nH]c4ccccc4c3C[C@H](C(=O)OC)N2C(=O)CCl)cc1 (stereo partly drawn) [A1, methyl (3R)-2-(2-chloroacetyl)-2,3,4,9-tetrahydro-1-(4-(methoxycarbonyl)phenyl)-1H-pyrido[3,4-b]indole-3-carboxylate] | – | – | 8000 | 57 | 970
